According to patent US12728111B2, “Electrophilic compounds and electrophilic prodrugs for treating aneurysm” (University of Pittsburgh—Of the Commonwealth System of …, priority 2020, dated 2026):

Legend:
[1] = system: leukocyte/macrophage infiltration in the vasculature; assay: FACS of single cells from mouse suprarenal aorta; type: in vivo; details: mean±SEM
From the text: (§1) FIG. 2. […] (A) Quantification of gene expression levels in the mice suprarenal aorta region by real-time PCR (n=3 to 4). (B, C) Serum cytokines levels measured by ELISA (n=8 to 11). (D) FACS of single cells isolated from the mice suprarenal aorta region. Each sample is the pool of cells from three mice (n=3). (E, F) Quantification of the percentage of CD45+ leukocytes and CD64+, CD11c+M1-like macrophages in total cells from the FACS analysis. Ordinary one-way ANOVA followed by Tukey's test was performed for (A), (E) and (F). For ELISA in (B) and (C), to avoid the effect of the non-detected data point, a non-parametric Kruskal-Wallis test followed by Dunn's multiple comparisons was performed by adding zero to the missing data point. Data presented as mean±SEM. A p<0.05 for both the main test and post hoc test was considered statistically significant.
The suprarenal aorta region from euthanized mice were completely perfused with PBS containing 2% of heparin. Tissues were digested using a cocktail of 450 U/mL collagenase type I (#17100-017, Gibco), 125 U/mL collagenase type XI (#C7657, Sigma-Aldrich), 60 U/mL hyaluronidase type I-s (#H3606, Sigma-Aldrich) and 60 U/mL DNase-I (#10104159001, Roche) at 37° C. for 90 minutes. Single cells filtered through a 70 μm cell strainer were blocked by Fc block (#14-0161-85, eBioscience) for 5 minutes on ice. […] Data were analyzed using FlowJo v10.6.1.

p65 (NFκB) = assay: oxLDL-induced p65 nuclear translocation in BMDMs (western blot); type: cell-based, mouse; details: 2.5 μM pretreatment 1 h, oxLDL 50 μg/ml 1 h
Protocol: FIG. 3. NO2—OA prevents oxLDL-induced NFκB activation and pro-inflammatory cytokine production. Primary BMDMs were pretreated with vehicle, OA (2.5 μM) or NO2—OA (2.5 μM) for 1 h, followed by treatment of oxLDL (50 to 100 μg/ml) for the indicated times. (A, B) Nuclear (A) and cytoplasmic protein (B) fractions were isolated 1 h after oxLDL treatment and subjected to western blot with antibodies against p65, lamin a/c (nuclear marker) and GAPDH (cytosolic marker). Representative western blot images of three independent experiments are shown. (C) Quantification of the p65 nuclear to cytoplasmic ratio by image studio (normalized by the internal control, n=3). (D-F) Following 8 h of oxLDL treatment, levels of IL6, MCP1 and TNFα in the cell medium were measured by ELISA (n=4). (G) Real-time PCR quantification of gene expression levels of IL1b and Mmp9 in total mRNA extracted from the BMDMs. […]
Nuclear/cytoplasm protein extraction, co-Immunoprecipitation and immunoblotting NE-PER™ Nuclear and Cytoplasmic Extraction Reagents (#78835, ThermoFisher) were used for nuclear and cytoplasmic protein extraction. […] Membranes were blocked by 5% BSA and incubated with the primary antibody at 4° C. overnight followed by incubation with fluorescence conjugated secondary antibody for 1 h at room temperature. Band intensity was collected with the Odyssey® CLx Imaging System and quantified using Image Studio™ Lite.

circulating MCP1 and IL6 = assay: Circulating cytokine ELISA in AAA model mice; type: in vivo, mouse
From the text: as §1
MCP1, TNFα and IL6 levels in mouse plasma were measured by ELISA performed by the Cancer Center Immunology Core at the University of Michigan.

[2] = system: LPS-induced macrophage activation; assay: PGE2-mediated protection against LPS-induced macrophage activation; type: cell-based
[3] = system: oxLDL-induced Il1b and Mmp9 expression in BMDMs; assay: Real-time PCR of oxLDL-induced pro-inflammatory genes in BMDMs; type: cell-based, mouse; details: BMDMs, vs control
Protocol: FIG. 3. NO2—OA prevents oxLDL-induced NFκB activation and pro-inflammatory cytokine production. Primary BMDMs were pretreated with vehicle, OA (2.5 μM) or NO2—OA (2.5 μM) for 1 h, followed by treatment of oxLDL (50 to 100 μg/ml) for the indicated times. (A, B) Nuclear (A) and cytoplasmic protein (B) fractions were isolated 1 h after oxLDL treatment and subjected to western blot with antibodies against p65, lamin a/c (nuclear marker) and GAPDH (cytosolic marker). Representative western blot images of three independent experiments are shown. (C) Quantification of the p65 nuclear to cytoplasmic ratio by image studio (normalized by the internal control, n=3). (D-F) Following 8 h of oxLDL treatment, levels of IL6, MCP1 and TNFα in the cell medium were measured by ELISA (n=4). (G) Real-time PCR quantification of gene expression levels of IL1b and Mmp9 in total mRNA extracted from the BMDMs. (C) Ordinary one-way ANOVA followed by Tukey's test was performed. As of (D-F), the basal level contains several non-detectable values, so ordinary one-way ANOVA followed by correction of FDR were performed for the oxLDL-treated groups only. Ordinary one-way ANOVA followed by Tukey's test was performed for (G). Data presented as mean±SEM. A p<0.05 for both the main test and post hoc test was considered statistically significant.
Mice suprarenal aortas were collected after the measurement of their diameter. Human aortic aneurysm samples were obtained from the Department of Cardiac Surgery at the University of Michigan. Samples from humans and mice were snap-frozen in liquid nitrogen for later processing. RNA from tissue was extracted using TRIzol (#15596018, Invitrogen). RNA from cells was isolated with the RNeasy Mini Kit (#74106, QIAGEN). SuperScript™ III First-Strand Synthesis System (#18080051, Invitrogen) was used to reverse-transcribe mRNA into cDNA. Gene expression was quantified in triplicates by quantitative real-time PCR (qPCR) using IQ SYBR Green Supermix (#1708882, Bio-Rad) with the indicated gene primers.

[4] = cited from earlier work

Compound: CCCCCCCCC(=CCCCCCCCC(=O)O)[N+](=O)[O-] [NO2—OA, 10-nitro-octadec-9-enoic acid]
- leucocytes (CD45+) in the vasculature, percentage of total cells [1]: 14.87±3.28%
- pro-inflammatory M1 like macrophages (CD64+, CD11c+), percentage of total cells [1]: 3.27±0.42%
- p65 nuclear to cytoplasmic ratio (p65 (NFκB)): 14.10±1.92
- protein level of circulating IL6 (circulating MCP1 and IL6): significantly decreased
- protein level of circulating MCP1 (circulating MCP1 and IL6): significantly decreased
- PGE2-mediated protective effect against LPS-induced macrophage activation (expression of Tnf, Il6, Ccl4) [2]: does not suppress
- oxLDL-induced expression of Il1b [3]: significantly decreased
- oxLDL-induced expression of Mmp9 [3]: significantly decreased
- Nrf2-regulated genes and heat shock response in peripheral blood mononuclear cells ([4]; administration in humans): induces
- circulating interleukin 6 (IL6) level ([4]; human volunteers): decreased
- circulating monocyte chemoattractant protein 1 (MCP1) level ([4]; human volunteers): decreased
- safety in Phase 1 human study ([4]; within a therapeutic window 25-450 mg/day): safe
